# According to publication PMC7069095, “A cell-permeable peptide-based PROTAC against the oncoprotein CREPT proficiently inhibits pancreatic cancer” (Theranostics, 2020):
# Non-standard residues stand in square brackets, D forms with d. No end group written: not given here. *: point of attachment. FITC = O=C1OC2(c3ccc(O)cc3Oc3cc(O)ccc32)c2ccc(NC(=S)*)cc21; Hyp = O=C(O)[C@@H]1C[C@@H](O)CN1; Ahx = NCCCCCC(=O)O
# B1: FITC-PRTC (peptide)
# peptide: {FITC-Ahx}-IY[Hyp]AL[Ahx]KDVLSEKEKKLEEYKQKLARVRRRRK
# notes: VHL ligand IYP(OH)AL; the P is trans-4-hydroxy-L-proline; followed by the AHX linker; CREPT ligand (CL): leucine-zipper-like motif of CREPT (RPRD1B), lysine 266 to valine 286; transmembrane transport pentapeptide; Peptide-based PROTAC: VHL ligand, AHX linker, CREPT ligand, RRRRK; also called FITC-labeled PRTC; source: synthetic peptide (ChinaPeptides Co., Ltd.), purified by HPLC
# B2: PRTC (peptide)
# peptide: IY[Hyp]AL[Ahx]KDVLSEKEKKLEEYKQKLARVRRRRK
# notes: VHL ligand IYP(OH)AL; the P is trans-4-hydroxy-L-proline; followed by the AHX linker; CREPT ligand (CL): leucine-zipper-like motif of CREPT (RPRD1B), lysine 266 to valine 286; transmembrane transport pentapeptide; The thermal shift assay names the peptide only as PRTC; also called cell-permeable peptide-based PROTAC against CREPT; source: synthetic peptide (ChinaPeptides Co., Ltd.), purified by …
# How the values were obtained:
# [1] = tested on: Myc-CREPT and Myc-CCT; test: Exogenous IP experiment in HEK293T cells; format: binding; settings: GST-tagged CREPT ligand
# Procedure: (§1) For exogenous immunoprecipitation assays, HEK293T cells were plated in 60 mm dishes and then transfected with the indicated plasmids. After 24 h, cells were harvested using RIPA buffer (50 mM Tris-HCl pH 8.0, 2 mM EDTA pH 8.0, 150 mM NaCl, 1% NP-40, 0.5% sodium deoxycholate, 0.1% SDS) with mixed protease inhibitors. Cell lysates were incubated with 2 μg of the indicated antibodies and 30 μL of protein A/G-Sepharose beads at 4 °C overnight. Beads were eluted five times with lysis buffer (50 mM Tris-HCl pH 7.6, 1 mM EDTA pH 8.0, 165 mM NaCl, 0.5% NP-40), and thereafter, a western blot assay was performed to analyze the association by using the indicated antibodies. Western blot was performed as previously reported. Anti-β-actin and anti-Flag antibodies were purchased from Sigma. Anti-Myc antibody was purchased from Santa Cruz Biotechnology. Antibody against CREPT was produced in the laboratory.
# [2] = target: T1, Flag-CREPT (Homo sapiens, UniProt Q9NQG5); test: GST pull-down; format: binding; settings: GST-tagged proteins purified from mammalian (HEK293T) cells
# T1 construct: expressed in transfected cells; host or cells: HEK293T
# T1 sequence (Q9NQG5 1-326): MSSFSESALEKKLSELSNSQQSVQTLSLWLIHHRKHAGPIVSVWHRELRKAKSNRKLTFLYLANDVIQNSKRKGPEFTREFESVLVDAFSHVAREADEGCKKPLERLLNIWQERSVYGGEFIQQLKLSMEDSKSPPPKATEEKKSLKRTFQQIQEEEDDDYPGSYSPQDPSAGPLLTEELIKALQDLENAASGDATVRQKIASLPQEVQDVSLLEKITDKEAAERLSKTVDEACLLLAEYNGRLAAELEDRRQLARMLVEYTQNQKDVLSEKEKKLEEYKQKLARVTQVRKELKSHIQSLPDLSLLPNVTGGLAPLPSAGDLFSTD
# Procedure: HEK293T cells were plated in 100 mm dishes and then transfected with the indicated plasmids. After 24 h, cells were harvested using RIPA buffer with mixed protease inhibitors. Cell lysates were incubated with 30 μL of GST-tagged Sepharose beads and 10 μg of purified proteins from either E. coli or HEK293T cells at 4 °C overnight. Beads were eluted five times with lysis buffer. Western blot was performed using an antibody against GST (Cell Signaling Technology) to analyze the association.
# [3] = tested on: Panc-1 cells; test: Flow cytometry, entry of FITC-labeled peptides into cells; format: cell-based; settings: flow cytometry, FITC-labeled peptides, 10 μM, Panc-1 cells, triplicate; in comparison with PRTC, PRTC-m or PRTC-v
# Procedure: To examine whether PRTC could permeate into pancreatic cancer cells, we synthesized fluorescein isothiocyanate (FITC) labeled PRTC, PRTC-m, PRTC-v, PRTC-r (PRTC without RRRRK) as well as TAT (a widely used cell penetrating peptide, as a positive control).
# Figure 3 Identification of the permeability of PRTC in Panc-1 cells. (A) Entry of FITC- labeled peptides into Panc-1 cells tested by flow cytometry. FITC-TAT is the positive control. Measurements were performed in triplicate. (B) Quantification of cellular uptake of Panc-1 cells treated with different concentrations of FITC-PRTC. (C) Confocal microscope images of Panc-1 cells treated with 10 μM FITC labeled peptides. Scale bars, 10 μm. (D) Confocal microscope images of Panc-1 cells treated with different dosages of FITC-PRTC. Scale bars, 10 μm.
# [4] = target: T2, purified GST-CREPT protein (Homo sapiens, UniProt Q9NQG5); test: Microscale thermophoresis (MST); format: binding; settings: FITC-labeled peptide 100 nM, gradient dilutions of purified GST-CREPT
# T2 construct: made in house
# T2 sequence (Q9NQG5 1-326): T1 sequence (Q9NQG5 1-326)
# Procedure: FITC-labeled PRTC and PRTC-m were regarded as ligands. After a pretest, 100 nM of both PRTC and PRTC-m generated the most appropriate value of fluorescence. Gradient dilutions of purified CREPT proteins were regarded as the target. The Kd value was measured by Microscale Thermophoresis NT.115 and was analyzed by MO.AffinityAnalysis (Nano Temper, German).
# [5] = target: T3, endogenous CREPT protein in Panc-1 cells (Homo sapiens, UniProt Q9NQG5); test: Western blot of endogenous CREPT (degradation); format: cell-based; settings: 10 μM or 20 μM peptide
# T3 construct: endogenous protein level of CREPT in Panc-1, AsPc-1 and MIA-PaCa-2 cells; endogenous in cells; host or cells: Panc-1, AsPc-1, MIA PaCa-2
# T3 sequence (Q9NQG5 1-326): T1 sequence (Q9NQG5 1-326)
# Procedure: as §1
# To address whether PRTC could induce CREPT degradation, we examined the endogenous protein level of CREPT in Panc-1, AsPc-1 and MIA-PaCa-2 cells in the presence of different dosages of PRTC. […] Consistently, treatment with PRTC led to decreases in CREPT protein at different times (Figure 5B, S3A). […] To further visualize the degradation process, we stained the endogenous CREPT protein with an antibody against CREPT in the cells treated with FITC-labeled PRTC.
# Figure 5 PRTC induces the ubiquitination and proteasome- dependent degradation of the endogenous CREPT protein. (A) Immunoblot of CREPT following 24 h incubation with different dosages of PRTC or PRTC-m in Panc-1 cells. (B) Immunoblot of CREPT exposed to 10 μM PRTC or PRTC-m for different times in Panc-1 cells. (C) Western blot analysis of CREPT following 24 h incubation with 10 μM PTRC in Panc-1 cells. MG132 is an inhibitor of proteasome activity. (D) Immunofluorescence visualization of Panc-1 cells after treatment with PRTC for 24 h. Cells were stained with anti-CREPT antibody. Scale bars, 20 μm.
# [6] = tested on: Panc-1 cells; test: Cell viability assay (CCK-8); format: cell-based; settings: 10 μM, CCK-8, OD450, three individual experiments
# Procedure: Cells were seeded into 96-well plates (1000 cells per well) and cultured for the indicated times. Cell viability was evaluated using a CCK-8 kit (Solarbio, Beijing, China). The value of OD450 was calculated by spectrophotometer and presented as the mean ± standard deviation (SD) from three individual experiments.
# [7] = Circular dichroism (CD) spectroscopy; format: physicochemical; settings: 0.1 mg/mL in deionized water, room temperature
# Procedure: All peptides were dissolved in the deionized water at a final concentration of 0.1 mg/mL. The CD spectra were measured by using a 1 nm bandwidth with a 1 nm step resolution from 190 to 260 nm at room temperature (Jasco spectropolarimeter, Japan). Final spectra were obtained from the average of three parallel scans after subtracting a spectrum of deionized water recorded under the same conditions. Each sample was scanned thrice and the averaged spectrum was smoothed. The helicity were calculated by CDNN 2.1 [59], [60].
# [8] = target: T4, CREPT protein (Homo sapiens, UniProt Q9NQG5); test: Thermal shift assay (TSA); format: binding; settings: GST-tagged CREPT 5.33 μM, SYPRO Orange, 25 to 70 °C at 1 °C/min
# T4 construct: made in house
# T4 sequence (Q9NQG5 1-326): T1 sequence (Q9NQG5 1-326)
# Procedure: Purified CREPT proteins were appropriately diluted in a buffer containing 50 mM Tris-HCl, pH 8.0, 150 mM NaCl. The final concentration of CREPT protein was 5.33 μM. SYPRO Orange dye was diluted into 10 μM. The PCR plates were sealed, shaken, and centrifuged after proteins and peptides were added. Thermal scanning (25 to 70 °C at 1 °C/min) was performed using a real-time PCR instrument (Bio-Rad). Melting curves were generated by Prism 7.0 based on the raw data.
# [9] = tested on: Panc-1 cells; test: Wound healing; format: cell-based; settings: 10 μM for 24 h, FBS-free DMEM
# Procedure: Cells were seeded in 6-well plates. Monolayer cells were scratched after culturing to obtain at least 95% confluence. Cells were washed with PBS and maintained in FBS-free DMEM and then treated with 10 μM PRTC and PRTC-m for 24 h. Migration distance was observed by microscopy and was measured by ImageJ from three individual experiments.
# [10] = target: T5, ubiquitinated CREPT in Panc-1 cells (Homo sapiens, UniProt Q9NQG5); test: Endogenous IP of CREPT with ubiquitin (Co-IP); format: cell-based; settings: 10 μM peptide for 24 h, IP: CREPT, IB: anti-ubiquitin
# T5 construct: endogenous protein level of CREPT in Panc-1, AsPc-1 and MIA-PaCa-2 cells; endogenous in cells; host or cells: Panc-1, AsPc-1, MIA PaCa-2
# T5 sequence (Q9NQG5 1-326): T1 sequence (Q9NQG5 1-326)
# Procedure: as §1
# In addition, a Co-IP experiment was performed in Panc-1 cells treated with 10 μM PRTC, PRTC-m or PRTC-v for 24 h. […] In the absence of MG132, the level of ubiquitinated CREPT was further increased by PRTC (Figure 6C, compare lane 1 and lane 2).
# Figure 6 The degradation of CREPT by PRTC is dependent on its VHL ligand. (A) Immunoblot of CREPT following 24 h incubation with different dosages of PRTC or PRTC-v in Panc-1 cells. (B) Immunoblot of CREPT exposed to 10 μM PRTC or PRTC-v for different time points in Panc-1 cells. (C) Endogenous IP experiment of CREPT with ubiquitin treated with 10 μM PTRC, PTRC-m or PTRC-v in Panc-1 cells. IP: CREPT, IB: Anti-ubiquitin.
# [11] = target: T6, purified GST-CREPT protein (microscale thermophoresis and thermal shift assay) (UniProt Q9NQG5 1-326); test: MST; 100 nM FITC-labeled peptide kept constant, gradient dilutions of purified GST-CREPT; Microscale Thermophoresis NT.115, MO.AffinityAnalysis; settings: both partners purified
# T6 construct: CREPT (also named RPRD1B); it may be the same as m2 or m3; also called GST-tagged CREPT; purified CREPT proteins; source: purified
# T6 sequence (looked up): T1 sequence (Q9NQG5 1-326)
# [12] = target: T6, purified GST-CREPT protein (microscale …); test: thermal shift assay; 5.33 μM purified CREPT protein in 50 mM Tris-HCl pH 8.0, 150 mM NaCl, SYPRO Orange, peptide or deionized H2O added; 25 to 70 °C at 1 °C/min; settings: both partners purified
molecule,measurement,setting,value
"GST-CL: GST protein tagged with CREPT ligand (CL) (KDVLSEKEKKLEEYKQKLARV; also: GST tag, end not given here)",binding in exogenous IP,[1],strongly binds
same,pull down of Flag-CREPT in vitro,[2],able to pull down
"IYP (OH) AL-AHX-KDVLSEKEKKLEEYKQKLARV [PRTC-r, PRTC without RRRRK]",fluorescence intensity in the cells (cell entry),[3],obviously decreased
"IYP (OH) AL-AHX-KDVPSEKEKKPEEYKQKPARV-RRRRK [PRTC-m, three leucine residues on PRTC were replaced with proline residues]",association with CREPT (MST),[4],failed to associate
same,CREPT protein level at different times,[5],no effect
same,cell proliferation,[6],failed
same,secondary structure by CD spectrum,[7],disordered structure
same,Helicity,"[7]; 190 to 260 nm, average of three scans, calculated by CDNN 2.1",7.9%
same,effect on thermal stability of CREPT,[8],failed to alter
same,cell movement (wound healing),[9],not
same,ubiquitinated CREPT proteins,[10],unable to mediate the accumulation
B1,Kd,[11],340 nM
B2,dTm (thermal shift),[12],6 °C
